Reference: patent publication US6846933B1, “Antimycobacterial compounds and method for making the same” (priority 2000, dated 2005)
In brackets after ≈: the same amount, converted by molar mass. Where two headings read alike, the source gives them in different places.

Tests used:
[1] = Quantitative estimate of relative lipophilicity (chloroform/water partitioning vs isoniazid); settings: ratio chloroform:water compared to same ratio for isoniazid as standard (INH = unity)
[2] = test system: Mycobacterium tuberculosis H37Rv (ATCC 27294); experiment: TAACF MIC / primary screen vs M. tuberculosis H37Rv (MABA or BACTEC 460); type: cell-based; settings: for MIC: Mycobacterium tuberculosis
VERO cells = experiment: Cytotoxicity in VERO cells (MTT, 72 hours); type: cell-based; settings: Chlorocebus sabaeus
M. avium (ATCC 25291) = experiment: TAACF M. avium assay; type: cell-based, Mycobacterium avium; design: % Inhibition: concentration or dose not given beside the values; settings: for % Inhibition: M. avium assay; for MIC: Mycobacterium avium
[3] = test system: M. tuberculosis Erdman (ATCC 35801) in monolayers of mouse bone marrow macrophages; experiment: Killing of M. tuberculosis Erdman in mouse bone marrow macrophages; type: cell-based; settings: Mycobacterium tuberculosis, Bone marrow macrophage, 168 h
M. tuberculosis Erdman = experiment: MIC vs M. tuberculosis Erdman; type: cell-based; settings: Mycobacterium tuberculosis
M. tuberculosis TAC-R = experiment: microbe, parasite or virus in culture; type: cell-based; settings: Mycobacterium tuberculosis, Bactec, strain panel
M. tuberculosis EMB-R = experiment: microbe, parasite or virus in culture; type: cell-based; settings: Mycobacterium tuberculosis, read-out: MIC EMB-R (ug/ml)
M. avium 101 = experiment: Broth dilution MIC vs M. avium 101; type: cell-based; settings: Mycobacterium avium, modified 7H10 broth, lowest concentration with no turbidity
[4] = ATCC25291, M. avium assay, Bactec, Tables 10-12, read-out: MIC
[5] = M. tuberculosis assay, Tables 4 and 5, read-out: MIC
[6] = Bactec, strain panel, read-out: MIC H37Rv
[7] = M. tuberculosis assay, Bactec, Tables 6, 7, 8, read-out: MIC
[8] = ATCC25291, M. avium assay, BACTEC, Tables 2 and 3, read-out: MIC
[9] = M. tuberculosis assay, Table 13, primary screen
[10] = M. tuberculosis assay, Table 13, primary screen, read-out: MIC

CC(=O)N1N=C(c2ccncc2)OC1c1c(Cl)cccc1Cl (stereo not shown) [Oxadiazoline Example 4, 2-(2,6-Dichlorophenyl)-3-acetyl-5-(4-pyridyl)-1,3,4-oxadiazoline]
Relative Lipophilicity [1]: 35,667

O=C(N/N=C/c1c(F)cccc1F)c1ccncc1 [Sample ID 122489]
% Inhibition ([2]; M. tuberculosis assay, Alamar, Table 7): 99%
MIC ([2]; M. tuberculosis assay, Alamar, Tables 7 and 9): < 0.2 µg/mL
IC50 (VERO cells): > 125 µg/mL
% Inhibition (M. avium (ATCC 25291); Bactec, Tables 10-12): 45%
MIC (M. avium (ATCC 25291); [4]): > 12.5 µg/mL

O=C(N/N=C/c1cccc(/C=N/NC(=O)c2ccncc2)c1)c1ccncc1 [Sample ID 102043]
MIC [2, 5]: 0.05 µg/mL (≈ 0.134 µM)
EC90 [3]: 0.04 µg/mL (≈ 0.107 µM)
EC99 [3]: > 0.8 µg/mL

CC(=O)N1N=C(c2ccncc2)OC1c1c(Cl)cccc1Cl (stereo not shown) [Sample ID 117899]
% Inhibition (M. avium (ATCC 25291); Alamar, Table 11): 12%
MIC (M. avium (ATCC 25291); ATCC25291, M. avium assay, Alamar, Table 11, read-out: MIC): > 12.5 µg/mL

CC(C)=CCCC(C)C/C=N/NC(=O)c1ccncc1 (stereo not shown) [Sample ID 102044]
MIC [2, 6]: < 0.1 µg/mL
MIC [2, 7]: 0.2 µg/mL (≈ 0.732 µM)
MIC [2, 5]: 0.2 µg/mL (≈ 0.732 µM)
EC90 [3]: 0.02 µg/mL (≈ 0.0732 µM)
EC99 [3]: 0.08 µg/mL
MIC (M. tuberculosis Erdman; Bactec, strain panel, read-out: MIC Erdman): < 0.1 µg/mL
MIC (M. avium (ATCC 25291); [8]): 0.78 µg/mL (≈ 2.85 µM)
MIC (M. tuberculosis TAC-R): 3.13 µg/mL (≈ 11.4 µM)

O=CNNC(=O)c1ccncc1
melting point: 94 to 96 °C

O=C(NN=C1CCCC1)c1ccncc1 [Sample ID 111298]
MIC (M. tuberculosis EMB-R): 0.05 µg/mL (≈ 0.246 µM)
MIC ([2]; M. tuberculosis assay, Bactec, Tables 6, 7, 8): 0.02 µg/mL (≈ 0.0984 µM)
MIC [2, 5]: 0.025 µg/mL (≈ 0.123 µM)
MIC ([2]; read-out: MIC H37Rv (ug/ml), Bactec, strain panel): 0.05 µg/mL (≈ 0.246 µM)
EC90 [3]: 0.03 µg/mL (≈ 0.148 µM)
EC99 [3]: 0.16 µg/mL
MIC (M. tuberculosis Erdman; read-out: MIC Erdman (ug/ml)): 0.05 µg/mL (≈ 0.246 µM)

CCCC(=O)NNC(=O)c1ccncc1
melting point: 142 °C

CCCCCCCCCCCC/C=N/NC(=O)c1ccncc1 [Sample ID 102094]
MIC [2, 5]: 0.2 µg/mL (≈ 0.63 µM)
EC90 [3]: 0.08 µg/mL (≈ 0.252 µM)
EC99 [3]: > 3.2 µg/mL

O=C(NN=C1CCCCC1)c1ccncc1 [Sample ID 102674]
MIC [2, 5]: 0.03 µg/mL (≈ 0.138 µM)
EC90 [3]: 0.08 µg/mL (≈ 0.368 µM)
EC99 [3]: > 0.4 µg/mL

COc1ccc(/C=N/NC(=O)c2ccncc2)cc1 [Sample ID 102866]
MIC [2, 6]: < 0.05 µg/mL
MIC [2, 7]: 0.1 µg/mL (≈ 0.392 µM)
MIC [2, 5]: 0.1 µg/mL (≈ 0.392 µM)
EC90 [3]: 0.04 µg/mL (≈ 0.157 µM)
EC99 [3]: 0.15 µg/mL
MIC (M. tuberculosis Erdman; read-out: MIC Erdman (ug/ml)): < 0.05 µg/mL
MIC (M. avium (ATCC 25291); [8]): 3.25 µg/mL (≈ 12.7 µM)
MIC (M. tuberculosis TAC-R): < 3.25 µg/mL

CC(=O)N1N=C(c2ccncc2)OC1c1ccccc1[N+](=O)[O-] (stereo not shown) [Sample ID 123667]
% Inhibition [2, 9]: 38%
MIC [2, 10]: > 12.5 µg/mL

CCOC(=O)C/C(C)=N/NC(=O)c1ccncc1 [Sample ID 101743]
MIC [2, 5]: 0.2 µg/mL (≈ 0.802 µM)
EC90 [3]: 0.01 µg/mL (≈ 0.0401 µM)
EC99 [3]: > 3.2 µg/mL

O=C(NNC(=S)Nc1ccc(Br)cc1)c1ccncc1 [Sample ID 125304]
% Inhibition (M. avium (ATCC 25291); Bactec, Tables 10-12): 15%
MIC (M. avium (ATCC 25291); [4]): > 12.5 µg/mL

O=C(NNC(=S)Nc1ccccc1)c1ccncc1 [Sample ID 122697]
% Inhibition [2, 9]: 79%
MIC [2, 10]: > 12.5 µg/mL

CC[C@H]1OC(=O)[C@H](C)[C@@H](O[C@H]2C[C@@](C)(OC)[C@@H](O)[C@H](C)O2)[C@H](C)[C@@H](O[C@@H]2O[C@H](C)C[C@H](N(C)C)[C@H]2O)[C@](C)(OC)C[C@@H](C)C(=O)[C@H](C)[C@@H](O)[C@]1(C)O [Clarithromycin, reference compound]
MIC (M. avium 101): 2 µg/mL (≈ 2.67 µM)
MIC (M. avium (ATCC 25291); ATCC25291, reference control, read-out: MIC Clarithromycin vs. M. avium (control in Comment column)): 2 µg/mL (≈ 2.67 µM)

CC(=O)N1N=C(c2ccncc2)OC1(C)c1ccccc1 (stereo not shown) [Sample ID 122487]
% Inhibition [2, 9]: 98%
MIC [2, 10]: < 12.5 µg/mL

CO[C@H]1/C=C/O[C@@]2(C)Oc3c(C)c(O)c4c(O)c(c(/C=N/N5CCN(C)CC5)c(O)c4c3C2=O)NC(=O)/C(C)=C\C=C\[C@H](C)[C@H](O)[C@@H](C)[C@@H](O)[C@@H](C)[C@H](OC(C)=O)[C@@H]1C [RMP, rifampin, reference compound]
MIC ([2]; read-out: MIC of RMP vs H37Rv (Comment, Table 9), control in MBC test): 0.5 µg/mL
% inhibition vs. M. tuberculosis (RMP control, Comment) ([2]; RMP at its MIC 0.25 μg/ml): 99%
IC50 (VERO cells): 68 µg/mL (≈ 82.6 µM)

COc1cc(/C=N/NC(=O)c2ccncc2)ccc1O [Sample ID 102858]
MIC [2, 5]: 0.2 µg/mL (≈ 0.737 µM)
EC90 [3]: 0.03 µg/mL (≈ 0.111 µM)
EC99 [3]: 0.12 µg/mL
